# Results as given in US12617779B2, “Self degradation-type CDK9 inhibitor prodrug and liposome encapsulating same” (Sumitomo Pharma Co., Ltd., priority 2021, dated 2026).
# Assay: Evaluation of conversion rate to active form in buffer solution (Experimental Example 1)
# Type: physicochemical
# Details: for Production rate of Alvocidib / Residual rate: 25 umol/L in buffer solution
# Summary of the method: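 Compounds at 25 umol/L were held at 37 °C in 50 mM citrate (pH 5.0, 5.5) or phosphate (pH 6.0–7.4) buffers. Remaining compound and Alvocidib formed were quantified by HPLC at 0, 0.5, 1, 2 and 3 h.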
compound,measurement,setting,value
"CCN(C[C@@H]1CCCCN1)C(=O)Oc1cc(O)c2c(=O)cc(-c3ccccc3Cl)oc2c1[C@H]1CCN(C)C[C@H]1O [Example 1, 2-(2-chlorophenyl)-5-hydroxy-8-[(3S,4R)-3-hydroxy-1-methylpiperidin-4-yl]-4-oxo-4H-1-benzopyran-7-yl ethyl{[(2S)-piperidin-2-yl]methyl}carbamate ditrifluoroacetate]",Efficiency of conversion to Alvocidib,"buffer solution, 37° C.",higher efficiency
same,Production rate of Alvocidib,"pH5.0, 0 hr, 37° C.",0.0%
same,Residual rate,"pH5.0, 0 hr, 37° C.",98.7%
same,Stability in buffer solution at pH 5,"pH 5, 37° C., up to 2 or 3 hours",stable
same,Production rate of Alvocidib,"pH5.0, 0.5 hr, 37° C.",0.4%
same,Residual rate,"pH5.0, 0.5 hr, 37° C.",98.4%
same,Production rate of Alvocidib,"pH5.0, 1 hr, 37° C.",0.7%
same,Residual rate,"pH5.0, 1 hr, 37° C.",98.1%
same,Production rate of Alvocidib,"pH5.0, 2 hr, 37° C.",1.3%
same,Residual rate,"pH5.0, 2 hr, 37° C.",97.4%
same,Production rate of Alvocidib,"pH5.0, 3 hr, 37° C.",1.8%
same,Residual rate,"pH5.0, 3 hr, 37° C.",96.9%
same,Production rate of Alvocidib,"pH5.5, 0 hr, 37° C.",0.0%
same,Residual rate,"pH5.5, 0 hr, 37° C.",98.8%
same,Production rate of Alvocidib,"pH5.5, 0.5 hr, 37° C.",1.0%
same,Residual rate,"pH5.5, 0.5 hr, 37° C.",97.3%
same,Production rate of Alvocidib,"pH5.5, 1 hr, 37° C.",1.8%
same,Residual rate,"pH5.5, 1 hr, 37° C.",97.1%
same,Production rate of Alvocidib,"pH5.5, 2 hr, 37° C.",3.5%
same,Residual rate,"pH5.5, 2 hr, 37° C.",95.3%
same,Production rate of Alvocidib,"pH5.5, 3 hr, 37° C.",5.1%
same,Residual rate,"pH5.5, 3 hr, 37° C.",93.8%
same,Production rate of Alvocidib,"pH6.0, 0 hr, 37° C.",0.0%
same,Residual rate,"pH6.0, 0 hr, 37° C.",99.2%
same,Production rate of Alvocidib,"pH6.0, 0.5 hr, 37° C.",3.3%
same,Residual rate,"pH6.0, 0.5 hr, 37° C.",95.5%
same,Production rate of Alvocidib,"pH6.0, 1 hr, 37° C.",6.3%
same,Residual rate,"pH6.0, 1 hr, 37° C.",92.5%
same,Production rate of Alvocidib,"pH6.0, 2 hr, 37° C.",12.0%
same,Residual rate,"pH6.0, 2 hr, 37° C.",86.8%
same,Production rate of Alvocidib,"pH6.0, 3 hr, 37° C.",17.0%
same,Residual rate,"pH6.0, 3 hr, 37° C.",81.8%
same,Production rate of Alvocidib,"pH6.5, 0 hr, 37° C.",0.0%
same,Residual rate,"pH6.5, 0 hr, 37° C.",98.4%
same,Production rate of Alvocidib,"pH6.5, 0.5 hr, 37° C.",8.7%
same,Residual rate,"pH6.5, 0.5 hr, 37° C.",90.2%
same,Production rate of Alvocidib,"pH6.5, 1 hr, 37° C.",16.4%
same,Residual rate,"pH6.5, 1 hr, 37° C.",82.0%
same,Production rate of Alvocidib,"pH6.5, 2 hr, 37° C.",30.1%
same,Residual rate,"pH6.5, 2 hr, 37° C.",68.4%
same,Production rate of Alvocidib,"pH6.5, 3 hr, 37° C.",40.7%
same,Residual rate,"pH6.5, 3 hr, 37° C.",57.7%
same,Production rate of Alvocidib,"pH7.0, 0 hr, 37° C.",0.0%
same,Residual rate,"pH7.0, 0 hr, 37° C.",98.9%
same,Production rate of Alvocidib,"pH7.0, 0.5 hr, 37° C.",23.2%
same,Residual rate,"pH7.0, 0.5 hr, 37° C.",75.0%
same,Production rate of Alvocidib,"pH7.0, 1 hr, 37° C.",41.1%
same,Residual rate,"pH7.0, 1 hr, 37° C.",57.8%
same,Production rate of Alvocidib,"pH7.0, 2 hr, 37° C.",65.3%
same,Residual rate,"pH7.0, 2 hr, 37° C.",33.5%
same,Production rate of Alvocidib,"pH7.0, 3 hr, 37° C.",77.1%
same,Residual rate,"pH7.0, 3 hr, 37° C.",21.0%
same,Production rate of Alvocidib,"pH7.4, 0 hr, 37° C.",0.4%
same,Residual rate,"pH7.4, 0 hr, 37° C.",98.5%
same,Conversion to Alvocidib at pH 7.4,"pH 7.4, 37° C., up to 3 hours",rapidly converted to Alvocidib
same,Production rate of Alvocidib,"pH7.4, 0.5 hr, 37° C.",44.9%
same,Residual rate,"pH7.4, 0.5 hr, 37° C.",53.8%
same,Production rate of Alvocidib,"pH7.4, 1 hr, 37° C.",69.3%
same,Residual rate,"pH7.4, 1 hr, 37° C.",29.3%
same,Production rate of Alvocidib,"pH7.4, 2 hr, 37° C.",87.6%
same,Residual rate,"pH7.4, 2 hr, 37° C.",11.3%
same,Production rate of Alvocidib,"pH7.4, 3 hr, 37° C.",91.4%
same,Residual rate,"pH7.4, 3 hr, 37° C.",6.9%
